In patent publication US20020151551A1, “Use of growth hormone secretagogues in conjunction with physical exercise cross reference to related application” (priority 2000, published 2002):

Tests used:
[1] = tested on: serum insulin-like growth factor-1; quadriceps muscle; settings: canines during remobilization; cited from earlier work
diet-induced catabolism = settings: orally active; cited from earlier work
[2] = tested on: exercise-induced growth hormone secretion; assay: Phase I double-blind, placebo-controlled, multiple dose evaluation: effect on exercise-induced growth hormone secretion (exercise bicycle); type: in vivo, human; settings: for growth hormone AUC, End of Treatment, Mean: Day 7, calorically restricted obese subjects; for growth hormone AUC, End of Treatment, Mean / growth hormone AUC, Change, Mean: AUC up to 150 minutes post exercise; for growth hormone AUC, Change, Mean: Day 7 versus screening visit
Experimental: Phase I Double-Blind, Placebo-Controlled, Multiple Dose Evaluation of Test Compound in Calorically Restricted, Obese Men and Women
A total of 48 obese subjects, without significant other medical problems and a negative exercise tolerance test, were recruited for this study and placed on a caloric-restricted diet. Subjects had been randomized to either placebo, 3 mg po tid, 6 mg po tid or 10 mg po qam of the test compound, 2-amino-N-[2-(3a-(R)-benzyl-2-methyl-3-oxo-2,3,3a,4,6,7-hexahydro-pyrazolo[4,3-c]pyridin-5-yl)-1-(R)-benzyloxymethyl-2-oxo-ethyl]-isobutyramide, L-tartrate for a total of seven days.
One of the objectives of this study was to examine the effect of the test compound on exercise-induced growth hormone secretion. The testing was conducted on an exercise bicycle.
One of the efficacy measures of this study was the area under the growth hormone secretory response curve over time (AUC). The above table summarizes the growth hormone AUC values at the screening visit (“Before Treatment”) and at Day 7 (“End of Treatment”) for subjects, who completed exercise at both visits. Also, the AUC values for these subjects were calculated for up to 150 minutes post exercise. The “p-value” in the above table, which is associated with each active treatment group, is derived from comparing each active treatment group with the placebo group, using the two-sample Wilcoxon test.

In the case of `CC(C)(N)C(=O)N[C@H](COCc1ccccc1)C(=O)N1CCC2(CC1)CN(S(C)(=O)=O)c1ccccc12` [MK-677], the “serum insulin-like growth factor-1 levels” value [1] is given as “elevated levels of serum insulin-like growth factor-1”, the “size and strength of the quadriceps muscle” value [1] is given as “increased the size and strength of the quadriceps muscle” and the diet-induced catabolism (diet-induced catabolism) is given as “reverses diet-induced catabolism”.
In the case of `CN1N=C2CCN(C(=O)[C@@H](COCc3ccccc3)NC(=O)C(C)(C)N)C[C@@]2(Cc2ccccc2)C1=O.O=C(O)C(O)C(O)C(=O)O` [test compound, 2-amino-N-[2-(3a-(R)-benzyl-2-methyl-3-oxo-2,3,3a,4,6,7-hexahydro-pyrazolo[4,3-c]pyridin-5-yl)-1-(R)-benzyloxymethyl-2-oxo-ethyl]-isobutyramide, L-tartrate], the “growth hormone AUC, End of Treatment, Mean” value (“growth hormone AUC, End” for short) ([2]; 3 mg p.o. tid for seven days) was 384, the “growth hormone AUC, Change, Mean” value ([2]; 3 mg p.o. tid for seven days) was 298 and the “growth hormone AUC, End” value ([2]; 6 mg p.o. tid for seven days) was 395. For the same molecule, the “growth hormone AUC, Change, Mean” value ([2]; 6 mg p.o. tid for seven days) was 250, the “growth hormone AUC, End” value ([2]; 10 mg p.o. qam for seven days) was 927 and the “growth hormone AUC, Change, Mean” value ([2]; 10 mg p.o. qam for seven days) was 684. For the same molecule, the “effect on exercise-induced growth hormone secretion” value ([2]; overall finding of the study, versus placebo) was “augmented exercise-induced growth hormone secretion”.
